# Columns and labels:
# [1] = ROS selectivity test, LC/MS conversion to 4-cyanopyridine; settings: 200 μM BBCP, 2 mM H2O2 (10 equiv), PBS pH 7.4, 5-30 min, room temperature
# Method: (§1) Selectivity for the BBCP probe was measured by analytical high performance liquid chromatography (HPLC) using Agilent 1200 Series HPLC System equipped with a multi-wavelength detector and an Agilent Zorbax SB-C18 Column (3.5 μm particle size, 3.0×150 mm). Concentrations of 4-cyanopyridine was calculated using integrated peak intensities at 280 nm using a calibration curve. All reactions were tested with 200 μM BBCP and 2 mM ROS/RNS (10 equiv) in PBS (pH 7.4). At a given time point, the reaction was quenched with 10 μL 1 M ascorbic acid (10 mM) and analyzed by LCMS. The ROS and RNS were generated as follows:
# H2O2: A 30% H2O2 in H2O solution was diluted to a 500 mM stock solution. 4 μL of 500 mM H2O2 (2 mM) was added to a 200 μM of BBCP in PBS.
# [2] = ROS/RNS/reactive sulfur selectivity test, LC/MS; settings: 200 μM probe, 2 mM reactive species, PBS pH 7.4, LC/MS (FIG. 1B)
# Method: Selectivity for the BBCP probe was measured by analytical high performance liquid chromatography (HPLC) using Agilent 1200 Series HPLC System equipped with a multi-wavelength detector and an Agilent Zorbax SB-C18 Column (3.5 μm particle size, 3.0×150 mm). Concentrations of 4-cyanopyridine was calculated using integrated peak intensities at 280 nm using a calibration curve. All reactions were tested with 200 μM BBCP and 2 mM ROS/RNS (10 equiv) in PBS (pH 7.4). At a given time point, the reaction was quenched with 10 μL 1 M ascorbic acid (10 mM) and analyzed by LCMS.
# [3] = ROS selectivity test, LC/MS; settings: 200 μM BBCP, 2 mM OCl^−, PBS pH 7.4, LC/MS
# Method: as §1
# OCl^−: Commercial bleach (8.25% NaOCl) was diluted to 500 mM. 4 μL of 500 mM NaOCl (for a final concentration of 2 mM) was added to 200 μM of BBCP.
# [4] = ROS/RNS selectivity test, LC/MS; settings: 200 μM BBCP, 2 mM ONOO^−, PBS pH 7.4, LC/MS
# Method: as §1
# ONOO^−: To a solution of aqueous NaOH (0.5 M, 2.5 mL) and iPrOH (2.5 mL) was added H2O2 (30% in H2O, 0.12 mL, 1.2 mmol, 1.2 equiv), followed by isoamyl nitrite (0.135 mL, 1.0 mmol, […]). The reaction was stirred at room temperature for 20 mins and washed with CH2Cl2 (10 mL×2). […] The solution was then filtered and stored in −20° C. until use. The concentration of the stock solution was calculated to be 14.3 mM using absorbance at 302 nm (e=1670 M^−1).
# [5] = UV/Vis kinetics measurement; settings: 25° C., PBS pH 7.4, 50 μM BBCP, 5 mM H2O2 (100 equiv)
# Method: The pseudo-first order rate constant was calculated by monitoring the BBCP consumption with UV/Vis spectroscopy over time in the presence of excess H2O2. A solution of BBCP (50 μM) oxidation was initiated by the addition of freshly prepared H2O2 (5 mM, 100 equiv) in PBS (pH 7.4) at 25° C. Reactions were monitored as Abs310 change and scanned every 30 s for 20 minutes. The apparent k1 value was determined by the initial rate of reaction (0-50 s) as (3.4±0.15)×10^−3 min^−1. The experiment was repeated in triplicate to give a k2 value of 12.6±0.52 M^−1 min^−1 (0.21±0.0087 M^−1 s^−1).
# HeLa cells = test: Cytotoxicity analysis using WST-8 assay (CCK-8); assay type: cell-based; settings: concentrations up to 10 mM, 6 h of treatment
# Method: WST cytotoxicity assay was performed using Cell Counting Kit-8 (CCK-8) according to the procedure as follows. HeLa cells were seeded in a 96-well plate at a concentration of 5000 cells/well in DMEM medium (high glucose) supplemented with 10% FBS and 1% sodium pyruvate. The cell cultures were incubated for 24 h in a humidified atmosphere of 5% CO2 at 37° C. After the incubation period, 10 μL of 5, 10, 50, 100 mM stock solutions of BBCP dissolved in PBS buffer (pH 7.4) were added to each well so the final concentration is 0.5, 1, 5, 10 mM, respectively. PBS and sodium dodecyl sulfate (SDS) (1 mM) were used as negative and positive controls, respectively. The treated 96-well plates were incubated for 6 and 24 h in a humidified atmosphere of 5% CO2 at 37° C. After appropriate incubation time, the CCK-8 solution (10 μL) was added to each well and further incubated for 2 h for color development. The absorbance at 450 nm from each well was measured by using a microplate reader (Synergy™ H1, BioTek). The background absorbance of BBCP corrected.
# [6] = In vivo reaction-based detection of H2O2 with hyperpolarized 15N-BBCP; settings: rat
# Method: Finally, the ability of ^15N-BBCP to image H2O2 in vivo using clinical 3 T MRI was assessed.
# Finally, the feasibility of ^15N-BBCP to detect H2O2 in vivo was investigated in a rat model at the clinical 3 T MRI. […] Despite the small chemical shift difference, the accumulation of ^15N-HBCP production was clearly observed in the later time points.
# [7] = Stability in PBS and DMEM media (LCMS)
# [8] = injection of exogenous H2O2, 3 T 15N-MRS (Example 3)
substance,measurement,setting,value
1-(4-boronobenzyl)-4-(cyano)pyridin-1-ium [^15N-BBCP],conversion to 4-cyanopyridine on reaction with H2O2,[1],significant conversion to 4-cyanopyridine
same,reactivity toward hydrogensulfite,[2],showed reactivity
same,reactivity with hypochlorite,[3],moderate reactivity
same,reactivity with peroxynitrite,[4],moderate reactivity
same,"apparent k1 (pseudo-first order rate constant), initial rate 0-50 s",[5],(3.4±0.15)×10^−3 min^−1
same,cell viability,HeLa cells,> 90%
same,15N-CP (fragmentation product) signal in vivo,[6]; [8],^15N-CP was not observed
same,15N-HBCP (oxidation product) signal in vivo,[6]; [8],^15N-HBCP peak was detectable
same,15N-CP (fragmentation product) signal in vivo,"[6]; intravenous bolus 40-mM after intraperitoneal H2O2, 3 T",^15N-CP was not observed
same,15N-HBCP (oxidation product) signal in vivo,"[6]; intravenous bolus 40-mM after intraperitoneal H2O2, slab with liver and kidneys, 3 T",both ^15N-BBCP and ^15N-HBCP peaks appeared
same,LCMS absorbance peak area of the probe in PBS,[7]; 0 hours,566.6
same,time stable in PBS and DMEM media,"[7]; 200 μM probe, pH 7.4, room temp, LCMS",over 26 h
same,LCMS absorbance peak area of the probe in PBS,[7]; 2 hours,565.6
same,LCMS absorbance peak area of the probe in PBS,[7]; 26 hours,564.9
same,stability in physiological buffer solution (in words),"[7]; PBS, pH 7.4, 200 μM, 0, 2 and 24 h (FIG. 4)",only showing hydrolysis of boronic ester to boronic acid

# — patent US12377173B2, “Compositions comprising hyperpolarized probes for H2O2 sensing and methods of using same” (Duke University, priority 2021, dated 2025)
